Data published in patent publication US5463062A, “Substituted cyclohexane derivatives, processes for their preparation and the use of the compounds for treating diseases” (Hoechst Aktiengesellschaft, priority 1992, dated 1995).

Target: T1, glucose-6-phosphatase system (Rattus norvegicus, UniProt F7EWB7)
T1 construct: To prepare the microsomal fraction containing the glucose-6-phosphatase, fresh liver organs from male Wistar rats were used; from tissue; host or cells: liver of male Wistar rats, microsomal fraction
T1 sequence (F7EWB7 1-429): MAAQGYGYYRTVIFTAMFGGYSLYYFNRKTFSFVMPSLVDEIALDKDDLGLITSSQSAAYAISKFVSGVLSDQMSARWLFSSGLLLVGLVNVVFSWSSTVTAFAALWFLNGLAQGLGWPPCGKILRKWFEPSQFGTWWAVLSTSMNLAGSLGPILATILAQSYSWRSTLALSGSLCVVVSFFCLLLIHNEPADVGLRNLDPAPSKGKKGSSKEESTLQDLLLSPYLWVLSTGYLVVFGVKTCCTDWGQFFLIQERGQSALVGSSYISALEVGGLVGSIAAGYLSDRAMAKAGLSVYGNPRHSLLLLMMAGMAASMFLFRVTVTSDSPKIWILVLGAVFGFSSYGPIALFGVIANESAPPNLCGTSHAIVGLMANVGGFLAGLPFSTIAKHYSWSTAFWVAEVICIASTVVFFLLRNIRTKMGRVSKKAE
Experiment: enzyme assay of glucose-6-phosphatase activity in liver microsomes (phosphate liberated from glucose-6-phosphate)
Type: biochemical, male Wistar rats
Conditions: TABLE; rat liver microsomes, glucose-6-phosphate 1 mmol/l, pH 7.0, 20 min at room temperature
Method: The effect of the compounds according to the invention on the glucose-6-phosphatase system has been investigated in an enzyme assay in liver microsomes.
To prepare the microsomal fraction containing the glucose-6-phosphatase, fresh liver organs from male Wistar rats were used and processed as described in the literature [Canfield, W. K. and Arion, W. J., J. Biol. Chem. 263, 7458-7460, (1988)]. This microsomal fraction can be stored at -70° C. without significant loss of activity for at least 2 months. The glucose-6-phosphatase activity was detected as indicated in the literature [Arion, W. J. in Methods Enzymol. 174, Academic Press 1989, pages 58-67) by determining the phosphate liberated from glucose-6-phosphate. 0.1 ml of assay mixture contained glucose-6-phosphate(1 mmol/l), the test substance, 0.1 mg of microsomal fraction and 100 mmol/l HEPES buffer (4-(2-hydroxyethyl)piperazine-1-ethanesulfonic acid), pH 7.0. The reaction was started by adding the enzyme. After 20 min at room temperature, the reaction was stopped by adding 0.2 ml of phosphate reagent. The sample was incubated at 37° C. for 30 min, and the absorption (A) of the blue color was subsequently measured at 570 nm. The inhibitory activity of the test substance was found by comparison with a control reaction which contained no test substance, using the formula [formula]
Where necessary, the inhibitory effect of the test substance was determined as a function of the test substance concentration employed, and from this the concentration for 50% inhibition of enzyme activity (IC50) was calculated.
The IC50 was determined for the compounds listed hereinafter: […]

SMILES	IC50 [µM]
O=C(CC(C1CCCCC1)n1ccnc1)O[C@@H]1C[C@](OCCCc2ccc(Cl)cc2)(C(=O)O)C[C@@H](O)[C@H]1O (some centres unmarked) [Example 69]	170
O=C(CCC1CCCCC1)O[C@@H]1C[C@](OCC2CC2c2ccc(Cl)cc2)(C(=O)O)C[C@@H](O)[C@H]1O (some centres unmarked) [Example 113]	3.7
O=C(CCCCC1CCCCC1)O[C@@H]1C[C@](OCCCc2ccc(Cl)cc2)(C(=O)O)C[C@@H](O)[C@H]1O [Example 114]	5
O=C(O[C@@H]1C[C@](OCCCc2ccc(Cl)cc2)(C(=O)O)C[C@@H](O)[C@H]1O)C1CCCCC1 [Example 115]	8.9
O=C(O[C@@H]1C[C@](OCCCc2ccc(Cl)cc2)(C(=O)O)C[C@@H](O)[C@H]1O)c1snnc1-c1ccccc1 [Example 116]	4.5
CC(C)CCC(=O)O[C@@H]1C[C@](OCCCc2ccc(Cl)cc2)(C(=O)O)C[C@@H](O)[C@H]1O [Example 117]	41
C=Cc1ccc(C(=O)O[C@@H]2C[C@](OCCCc3ccc(Cl)cc3)(C(=O)O)C[C@@H](O)[C@H]2O)cc1 [Example 118]	1.3
O=C(COc1ccccc1)O[C@@H]1C[C@](OCCCc2ccc(Cl)cc2)(C(=O)O)C[C@@H](O)[C@H]1O [Example 119]	12
O=C(CCC1CCCCC1)O[C@@H]1C[C@](OCCCc2ccc(Cl)cc2)(C(=O)O)C[C@@H](O)[C@H]1O [Example 120]	0.69

Same assay, conditions: in words

SMILES	inhibition of the glucose-6-phosphatase system
O=C(/C=C/c1ccc(O)cc1)O[C@@H]1C[C@](OCc2cccc3ccccc23)(C(=O)O)C[C@H](O)[C@H]1O [Example 14, [1S,3R,4R,5S]-1-(1-naphthylmethyl)oxy-3-[(E)-3-(4-hydroxyphenyl)-2-propenoyl]oxy-4,5-dihydroxycyclohexanecarboxylic acid]	inhibitors of the glucose-6phosphatase system

Same assay, conditions: rat liver microsomes, glucose-6-phosphate 1 mmol/l, pH 7.0, 20 min at room temperature

SMILES	IC50 [µM]
O=C(/C=C/c1ccc(O)cc1)O[C@@H]1C[C@](OCc2ccccc2)(C(=O)O)C[C@H](O)[C@H]1O [Example 1, [1S,3R,4R,5S]-3-[(E)-3-(4-hydroxyphenyl)propenoyl]oxy-4,5-dihydroxy-1-phenylmethyloxy-cyclohexanecarboxylic acid]	190
O=C(/C=C/c1ccc(O)cc1)O[C@@H]1C[C@](OCc2cccs2)(C(=O)O)C[C@H](O)[C@H]1O [Example 2, [1S,3R,4R,5S]-3-[(E)-3-(4-hydroxyphenyl)-2-propenoyl]oxy-4,5-dihydroxy-1-(2-thienylmethyl)oxycyclohexanecarboxylic acid]	110
C#CCO[C@@]1(C(=O)O)C[C@H](O)[C@@H](O)[C@H](OC(=O)/C=C/c2ccc(O)cc2)C1 [Example 3, [1S,3R,4R,5S]-3-[(E)-3-(4-hydroxyphenyl)-2-propenoyl]oxy-4,5-dihydroxy-1-(2-propynyl)oxycyclohexanecarboxylic acid]	560

More lines, now with the values ahead:

IC50 [µM]	SMILES
26	O=C(O[C@@H]1C[C@](OCCCc2ccc(Cl)cc2)(C(=O)O)C[C@H](O)[C@H]1O)c1ccccn1 [Example 4, [1S,3R,4R,5S]-1-(4-chlorophenylpropyl)oxy-4,5-dihydroxy-3-(2-pyridinecarbonyl)oxycyclohexanecarboxylic acid]
9.3	O=C(CCc1ccc(O)cc1)O[C@@H]1C[C@](OCCCc2ccc(Cl)cc2)(C(=O)O)C[C@@H](O)[C@H]1O [Example 44, [1S,3R,4R,5S]-1-(4-chlorophenylpropyl)oxy-3-[(E)-3-(4-hydroxyphenyl)propoyl]oxy-4,5-dihydroxycyclohexanecarboxylic acid]

Same assay, conditions: rat liver microsomes, glucose-6-phosphate 1 mmol/l, pH 7.0, 20 min at room temperature; unit printed as "82 M"

SMILES	IC50 [µM]
CCCO[C@@]1(C(=O)O)C[C@H](O)[C@@H](O)[C@H](OC(=O)/C=C/c2ccc(O)cc2)C1 [Example 8, [1S,3R,4R,5S]-3-[(E)-3-(4-hydroxyphenyl)-2-propenoyl]oxy-4,5-dihydroxy-1-propyloxycyclohexanecarboxylic acid]	230

Test system: glucose-6-phosphatase
Experiment: not given
Conditions: in words, literature; cited from earlier work

SMILES	inhibition of glucose-6-phosphatase
S=C=Nc1ccccc1C=Cc1ccccc1N=C=S [2,2'-diisothiocyanatostilbene]	non-specific inhibitors of glucose-6-phosphatase
CC(=O)Oc1ccccc1C=Cc1ccccc1N=C=S [2-isothiocyanato-2'-acetoxystilbene]	non-specific inhibitors of glucose-6-phosphatase
O=C(O)c1cc(SSc2ccc([N+](=O)[O-])c(C(=O)O)c2)ccc1[N+](=O)[O-] [5,5'-dithiobis-2-nitrobenzoic acid]	non-specific inhibitors of glucose-6-phosphatase
O=C(CCc1ccc(O)cc1)c1c(O)cc(O)cc1O[C@@H]1O[C@H](CO)[C@@H](O)[C@H](O)[C@H]1O [phlorrhizin]	non-specific inhibitors of glucose-6-phosphatase
